Twelve molecules from ChEMBL document CHEMBL4765237, “Structural optimization and structure-activity relationship studies of N-phenyl-7,8-dihydro-6H-pyrimido[5,4-b][1,4]oxazin-4-amine derivatives as a new class of inhibitors of RET and its drug resistance mutants” (Eur J Med Chem, 2018) can be followed below.

Structures are written as SMILES. The source made the active and inactive calls. The calls are words filed in the database; no cut-off is given here.

Series [1] has as its system NIH3T3. Conditions: Homo sapiens, dose 30.0 mg/kg, time 18.0 day.
A short description of series [2]: Growth inhibition of […] NIH3T3 cells harboring RET C634Y mutant incubated for 3 days by MTT assay. In kind it is functional. Conditions: NIH3T3, 72 h; time 3 day. (Tetrazolium assays rely on reduction of a dye to a coloured formazan, in cell work by metabolically active cells.)
For series [3], the system named is BaF3. Put plainly: Growth inhibition of mouse BaF3 cells over expressing wild type RET incubated for 3 days by MTT assay. The series is classed as functional. The note with it: BaF3, 72 h, time 3 day.
The subject of series [4] is BaF3. Put plainly: Growth inhibition of mouse BaF3 cells harboring RET M918T mutant incubated for 3 days by MTT assay. The series is classed as functional. The note with it: BaF3, 72 h, time 3 day.
Series [5] is described as follows: Growth inhibition of human TT cells incubated for 10 days by MTT assay. Conditions: 240 h, time 10 day. The series is classed as functional.
Series [6] deals with BaF3. Put plainly: Growth inhibition of mouse BaF3 cells incubated for 3 days by MTT assay. The series is classed as functional. The note with it: BaF3, 72 h, time 3 day.
Series [7] in a line: Toxicity in NOD-SCID mouse xenografted with […] cells harboring RET C634Y mutant assessed as reduction in body weight at 30 mg/kg, po administered for 18 days and measured on day 18. In kind it is organism-based. The note with it: in vivo, 432 h, time 18 day. A general note: In xenograft studies the graft and the host belong to different species.
Series [8] has as its system BaF3. Put plainly: Growth inhibition of mouse BaF3 cells harboring RET V804M mutant incubated for 3 days by MTT assay. Conditions: BaF3, 72 h, time 3 day. In kind it is functional.
Series [9] in a line: Growth inhibition of […] NIH3T3 cells incubated for 3 days by MTT assay. Conditions: NIH3T3, 72 h; time 3 day. The series is classed as functional.
For series [10], the system named is BaF3. In kind it is functional. The note with it: Mus musculus, BaF3, 72 h; time 3 day.
In series [11] the target is Proto-oncogene tyrosine-protein kinase receptor Ret (Homo sapiens, UniProt P07949, V804M).
Proto-oncogene tyrosine-protein kinase receptor Ret (Homo sapiens, UniProt P07949, V804M), sequence (P07949 29-1114 V804M limits assumed): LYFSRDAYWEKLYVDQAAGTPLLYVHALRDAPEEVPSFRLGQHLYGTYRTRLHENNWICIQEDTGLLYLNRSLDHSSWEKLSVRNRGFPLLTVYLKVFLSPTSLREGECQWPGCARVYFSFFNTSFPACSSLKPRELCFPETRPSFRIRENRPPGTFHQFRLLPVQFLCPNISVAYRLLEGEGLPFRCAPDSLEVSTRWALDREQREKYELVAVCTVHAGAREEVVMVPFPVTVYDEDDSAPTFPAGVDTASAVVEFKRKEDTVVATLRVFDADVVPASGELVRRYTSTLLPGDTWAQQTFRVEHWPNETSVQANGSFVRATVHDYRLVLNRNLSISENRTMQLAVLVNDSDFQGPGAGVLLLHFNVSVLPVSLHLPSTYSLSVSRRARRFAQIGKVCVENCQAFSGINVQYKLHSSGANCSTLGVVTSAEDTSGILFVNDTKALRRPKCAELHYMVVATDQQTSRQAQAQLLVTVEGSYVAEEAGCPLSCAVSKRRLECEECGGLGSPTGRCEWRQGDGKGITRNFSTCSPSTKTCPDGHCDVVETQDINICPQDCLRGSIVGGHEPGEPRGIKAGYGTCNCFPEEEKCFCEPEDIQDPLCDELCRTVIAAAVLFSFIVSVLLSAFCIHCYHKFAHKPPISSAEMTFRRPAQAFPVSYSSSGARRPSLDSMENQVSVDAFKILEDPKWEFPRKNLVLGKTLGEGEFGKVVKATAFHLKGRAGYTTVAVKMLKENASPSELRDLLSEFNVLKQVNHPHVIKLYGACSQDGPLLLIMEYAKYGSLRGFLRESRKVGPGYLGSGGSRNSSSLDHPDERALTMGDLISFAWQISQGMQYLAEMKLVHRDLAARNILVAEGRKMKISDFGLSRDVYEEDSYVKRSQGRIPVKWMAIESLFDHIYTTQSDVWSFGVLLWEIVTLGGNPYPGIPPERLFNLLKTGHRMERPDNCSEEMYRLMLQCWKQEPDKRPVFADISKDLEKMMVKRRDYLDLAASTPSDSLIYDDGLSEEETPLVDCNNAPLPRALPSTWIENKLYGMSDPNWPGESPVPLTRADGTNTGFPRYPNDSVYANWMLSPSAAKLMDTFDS
The target in series [12] is Proto-oncogene tyrosine-protein kinase receptor Ret (Homo sapiens, UniProt P07949).
Proto-oncogene tyrosine-protein kinase receptor Ret (Homo sapiens, UniProt P07949), sequence (P07949 whole entry): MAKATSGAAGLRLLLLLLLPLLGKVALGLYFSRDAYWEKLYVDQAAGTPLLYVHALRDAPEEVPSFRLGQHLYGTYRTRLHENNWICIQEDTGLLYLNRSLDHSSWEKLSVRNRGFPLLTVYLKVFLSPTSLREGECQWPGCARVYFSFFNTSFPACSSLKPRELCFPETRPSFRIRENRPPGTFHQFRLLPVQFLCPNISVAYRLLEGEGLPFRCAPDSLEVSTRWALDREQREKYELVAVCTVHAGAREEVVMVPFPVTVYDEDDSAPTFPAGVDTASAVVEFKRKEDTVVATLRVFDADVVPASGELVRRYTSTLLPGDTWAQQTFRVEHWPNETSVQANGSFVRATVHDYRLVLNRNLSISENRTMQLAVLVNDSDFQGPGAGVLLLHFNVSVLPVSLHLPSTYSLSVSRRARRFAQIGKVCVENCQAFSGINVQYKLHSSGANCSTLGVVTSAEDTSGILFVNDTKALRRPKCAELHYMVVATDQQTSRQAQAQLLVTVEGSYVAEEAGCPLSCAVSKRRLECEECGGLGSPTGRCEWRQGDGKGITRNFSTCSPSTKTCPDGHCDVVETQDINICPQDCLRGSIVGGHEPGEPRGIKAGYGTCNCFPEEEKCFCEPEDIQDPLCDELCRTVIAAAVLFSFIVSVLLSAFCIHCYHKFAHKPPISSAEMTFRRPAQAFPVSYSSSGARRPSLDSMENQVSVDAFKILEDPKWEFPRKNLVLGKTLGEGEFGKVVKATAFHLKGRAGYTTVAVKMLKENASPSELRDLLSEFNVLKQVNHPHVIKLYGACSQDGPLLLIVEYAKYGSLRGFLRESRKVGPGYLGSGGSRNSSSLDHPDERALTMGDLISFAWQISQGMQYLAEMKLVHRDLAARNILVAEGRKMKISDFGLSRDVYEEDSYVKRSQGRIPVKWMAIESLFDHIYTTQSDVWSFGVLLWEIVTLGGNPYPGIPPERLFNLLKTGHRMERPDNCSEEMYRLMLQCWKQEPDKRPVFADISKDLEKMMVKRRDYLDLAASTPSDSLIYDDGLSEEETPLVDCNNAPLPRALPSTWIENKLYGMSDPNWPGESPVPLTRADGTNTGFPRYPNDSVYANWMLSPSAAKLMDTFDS

What is called GI50 is the concentration that inhibits growth by half. Read a low GI50 as greater sensitivity of the cells. `CNC(=O)c1cc(Oc2ccc(NC(=O)Nc3ccc(Cl)c(C(F)(F)F)c3)cc2)ccn1` [SORAFENIB]: the TGI result in series [1] was “Active”. Moreover, the GI50 stood at 0.32 µM in [2]; 0.23 µM in series [3]; 1.28 µM in series [4]; 0.23 µM in series [5]; 6.36 µM in series [6]; 1.1 µM in series [8]. Further, the figures for the 50% growth inhibitory concentration (GI50) in [9] and in series [10] were > 10 µM and 1.8 µM, respectively. Moreover, the Activity result in series [7] was “Non-Toxic”.

What is called IC50 is the concentration that gives 50% inhibition. As to `O=C(Nc1ccc(Nc2ncnc3c2OCCN3)cc1)Nc1cccs1`, the concentration for 50% growth inhibition (GI50) in series [2], in series [3], in series [4], in series [5], in [6] and in [8] was > 10 µM throughout. Further, the concentration for 50% growth inhibition (GI50) in series [9] and in series [10] was > 10 µM throughout. In addition, the values for the IC50 in series [11] and in series [12] were 8.64 µM and > 10 µM, respectively.

In the case of `CC(C)(C)c1cc(NC(=O)Nc2ccc(Nc3ncnc4c3OCCN4)c(F)c2)no1`, the GI50 stood at 0.39 µM in series [2]; 0.33 µM in series [3]; 2.94 µM in series [4]; 0.3 µM in series [5]; 10 µM in series [6]; 1.53 µM in [8]. Further, the concentration for 50% growth inhibition (GI50) in series [9] is > 10 µM; in [10] it was 3.49 µM. Moreover, the concentration for half-maximal inhibition (IC50) is 0.022 µM in [11] and 0.021 µM in [12].

`COc1cccc(NC(=O)Nc2ccc(Nc3ncnc4c3OCCN4)cc2)c1`: the concentration for 50% growth inhibition (GI50) in series [2], in [3], in series [4], in [5], in [6] and in [8] was > 10 µM in each case. Moreover, the 50% growth inhibitory concentration (GI50) in series [9] and in series [10] was > 10 µM each time. Besides, the results for the 50% inhibitory concentration (IC50) in [11] and in [12] were 5.29 µM and 6.81 µM, respectively.

For `COc1cc2nccc(Oc3ccc(NC(=O)C4(C(=O)Nc5ccc(F)cc5)CC4)cc3)c2cc1OC` [CABOZANTINIB], the TGI entry in series [1] is “Active”. For the same molecule, the GI50 came out at 0.1 µM in series [2]; 0.15 µM in series [3]; 1.45 µM in [4]; 0.2 µM in series [5]; 9.36 µM in series [6]; 2.8 µM in series [8]. Moreover, the GI50 in series [9] was > 10 µM; in series [10] it was 1.53 µM. Besides, in [7], the Activity entry is given as “Non-Toxic”.

`O=C(Nc1ccc(Nc2ncnc3c2OCCN3)cc1)Nc1cc(Cl)cc(Cl)c1`: the GI50 in series [2] is 8.05 µM; in series [3], > 10 µM; in series [4], > 10 µM; in [5], > 10 µM; in series [6], 10 µM; in series [8] it was > 10 µM. Also, the GI50 in series [9] and in [10] was > 10 µM throughout. Further, the IC50 in series [11] came out at 1.3 µM; in [12], 0.865 µM.

On to `Cc1ccc(F)c(NC(=O)Nc2ccc(Nc3ncnc4c3OCCN4)cc2)c1`, for which the GI50 was 10 µM in series [2]; > 10 µM in [3]; > 10 µM in [4]; 5.82 µM in series [5]; > 10 µM in [6]; > 10 µM in series [8]. Besides, the 50% growth inhibitory concentration (GI50) in series [9] and in [10] was > 10 µM in each case. The values for the 50% inhibitory concentration (IC50) in series [11] and in [12] were 5.11 µM and 1.47 µM, respectively.

Consider `O=C(Nc1ccc(Nc2ncnc3c2OCCN3)cc1)Nc1cccc2ccccc12`, for which the concentration for 50% growth inhibition (GI50) in series [2], in series [3], in series [4], in series [5], in series [6] and in [8] was > 10 µM throughout. Also, the concentration for 50% growth inhibition (GI50) in [9] and in [10] was > 10 µM throughout. Besides, the IC50 in [11] and in series [12] was > 10 µM throughout.

Consider `CC(C)(C)c1cc(NC(=O)Nc2cccc(Nc3ncnc4c3OCCN4)c2)no1`, for which the concentration for 50% growth inhibition (GI50) in series [2], in series [3], in series [4], in [5], in series [6] and in [8] was > 10 µM throughout. Further, the concentration for 50% growth inhibition (GI50) in [9] and in series [10] was > 10 µM in each case. Besides, the half-inhibitory concentration (IC50) in series [11] was 3.45 µM; in [12] it was 0.944 µM.

As to `CC(C)(C)c1cc(NC(=O)Nc2ccc(Nc3ncnc4c3OCCN4)cc2)no1`, the GI50 was 0.11 µM in series [2]; 0.15 µM in [3]; 1.62 µM in series [4]; 0.08 µM in series [5]; > 10 µM in series [6]; 1.36 µM in [8]. Moreover, the 50% growth inhibitory concentration (GI50) is > 10 µM in series [9] and 4.41 µM in series [10]. Also, the IC50 in [11] came to 0.034 µM; in series [12], 0.01 µM.

With `Cc1nc(Nc2ncnc3c2OCCN3)ccc1NC(=O)Nc1cc(C(C)(C)C)on1`, the GI50 in series [2] was 10 µM; in series [3], > 10 µM; in series [4] it was > 10 µM; in series [5], > 10 µM; in series [6] it was > 10 µM; in [8] it was > 10 µM. Further, the 50% growth inhibitory concentration (GI50) in [9] and in series [10] was > 10 µM in each case. The IC50 stood at 1.11 µM in series [11] and 0.781 µM in series [12].

With `O=C(Nc1ccc(Br)cc1)Nc1ccc(Nc2ncnc3c2OCCN3)cc1`, the GI50 in series [2] was 8.92 µM; in series [3], > 10 µM; in series [4], > 10 µM; in series [5] it was 10 µM; in series [6], 10 µM; in [8] it was > 10 µM. In addition, the concentration for 50% growth inhibition (GI50) in series [9] and in series [10] was > 10 µM in each case. The IC50 in series [11] is 2.35 µM; in [12] it was 2.22 µM.
